Tests used:
[1] = Complexing constant Log K in methanol at 25° C.; format: binding
Procedure: K is the complexing constant of a CEM and a […] cation in methanol, at 25° C., which is measured according to the standard method of isothermal calorimetric titration.

[2] = Liquid-liquid extraction of mono-salt saline solution; conditions: 0.1M CEM + 3.52M ASM2 in CH2Cl2; initial salt 0.1 mol/L; Org./Water = 1; molar %
Excerpt: The extracting composition is obtained by solubilizing an amount of CEM and ASM in the selected fluidizing agent, dichloromethane CH2Cl2, dichlorobenzene or dichlorotoluene or any other fluidizing agent able to well solubilize the mixture CEM/ASM in order to obtain the searched final concentrations after solubilizing CEMs and ASMs in a minimum of 3 milliliters of fluidizing agent. If the selected fluidizing agent is also an ASM compound, so the selected ASM volume is at least 3 milliliters. The given concentrations of ASM2 and ASM9 are related to the added fluidizing agent volume and the concentrations of CEM are related to the added fluidizing agent+ASM volume. The extracting organic composition is then lightly heated so as to promote the solubilization of the organic compounds by means of a heat gun (temperature around 50 to 60° C.) for a few seconds (10 to 30 seconds) until a clear solution is obtained. The composition is thus left for 24 hours at room temperature so as to make sure that the obtained formulation is stable.
These sealed formulations are then orbitally stirred at 500 revolutions/minute for two hours after adding an equivalent volume of water which was distilled twice so as to allow a water saturation of the whole formulation and a pH control at the inlet and at the outlet (pH close to 7, or at least maintained after contact with the saturation water).
3 mL of the prepared extracting organic composition are then taken from the lower phase of the decanted diphasic mixture and transferred to a vial containing 3 mL of the water containing the one or more considered chloride salts (NaCl or others), then the vial is sealed and orbitally stirred (at 500 revolutions per minute) for 2 hours at room temperature (RT), that is to say between 20 and 25° C.
A verification is made to make sure that droplets in the range of 1-2 mm are really present during these stirrings in order to be sure that an equilibrium in the distribution of the considered chloride salt (NaCl or other) is achieved between both liquid phases at the end of stirring. The aspect of the organic and aqueous phases is clear and colorless or slightly turbid.
Once the 2-hour stirring is carried out, the stirring is stopped and the whole is left for decantation for about 10 minutes, at least until both phases are completely separated, at the temperature of the assay. Then, the upper aqueous phase is taken then stirred and diluted in order to analyze its salinity by a ion chromatography (a Metrohm™ device including a cation analyzing column and an anion analyzing column suitable for the ions and for the concentration of the salts which are searched for). Likewise, the chloride salt (NaCl or other) initial aqueous solution is also analyzed by this ion chromatography to determine its cation and chloride molar relative concentration before the extraction. All the extractions and analyses were duplicated.
The considered extracting composition comprises 0.1 mol/L of CEM1 and 3.52 mol/L of ASM2 in dichloromethane CH2Cl2, which was obtained as described above. The initial concentration of the considered salt in water, whether it is LiCl, NaCl, KCl, MgCl2, CaCl2, SrCl2 or BaCl2, is 0.1 mol/L.
After carrying out these 7 specific extractions (duplicated) of salts, the amounts of extracted cations in relative molar percentage before and after extraction at room temperature and at water/extracting formulation iso-volume are indicated in table I: […]

[3] = Extraction of salts from a brine, four extraction steps; conditions: 0.4M CEM1 + 1.2M ASM9 in 12ClPh; for Salinity progression at RT, Ca / Salinity progression at RT, Cl / Salinity progression at RT, K / Salinity progression at RT, Mg / Salinity progression at RT, Na: Org./Water 3, brine 180 g/Liter
Excerpt: (§1) The extracting composition is as follows: 0.4 Mol/L of CEM1 (cf example 1, of CAS #: 114155-16-7), completed with 1.2 Mol/L of ASM9 of formula: […]
(§2) The brine is a water having a high salinity, at 180 g/Liter (that is to say 5.6 Mol/L), composed of sodium, potassium, calcium, magnesium and chloride ions in the proportions of table II below. The saline water to be treated was contacted with a triple relative volume of this extracting composition in order to get close to the operating conditions.
(§3) It is shown in table II below the concentrations, in mMol/L of water, of each of the ions before and after each of the four extraction steps, carried out at room temperature (RT).

[4] = Extraction of salts from a brine, four extraction steps, total salinity; conditions: 0.4M CEM1 + 1.2M ASM9 in 12ClPh; for Salinity progression at RT, Total: Org./Water 3, brine 180 g/Liter
Excerpt: as §1, §2, §3

[5] = Selective extraction from a binary mixture NaCl/CaCl2; conditions: 0.1 mol/L CEM + 2.4 mol/L ASM9 in 1,2-dichlorobenzene; brine 0.05 mol/L NaCl and CaCl2 each; RT; molar %
Excerpt: A brine containing an equimolar mixture of salts, 0.05 mol/L of NaCl and CaCl2 each, which was made as described above, was contacted with two extracting compositions, one of which according to the invention.
Each extracting composition comprises 0.1 mol/L of CEM
[drawing 53] and 2.4 mol/L of ASM9 in 1,2-dichlorobenzene.
A brine containing a mixture of NaCl and CaCl2 is made as described above to obtain the following initial saline concentrations in a mixture: 0.2 Mol/L of NaCl and 0.03 Mol/L of CaCl2. The extracting resin, is composed of 0.1 Mol/L of CEM2, 3.52 Mol/L of ASM2 and a complement of liquid ASM1, which is also used as a fluidizing agent.

[6] = after Extract 4, expressed in g/Liter

Compound: CCN(CC)C(=O)COc1c2cc(C(C)(C)C)cc1Cc1cc(C(C)(C)C)cc(c1OCC(=O)N(CC)CC)Cc1cc(C(C)(C)C)cc(c1OCC(=O)N(CC)CC)Cc1cc(C(C)(C)C)cc(c1OCC(=O)N(CC)CC)C2 [CEM1, 4-tert-butyl-Calix[4]arene tetrakis(N,N-diethylacetamide)]
- Log K(Ba^++, MeOH, 25° C.) [1]: 7.2
- Log K(Ca^++, MeOH, 25° C.) [1]: > 9.0
- Log K(Cs^+, MeOH, 25° C.) [1]: 2.5
- Log K(K^+, MeOH, 25° C.) [1]: 5.8
- Log K(Li^+, MeOH, 25° C.) [1]: 4.0
- Log K(Mg^++, MeOH, 25° C.) [1]: < 1.2
- Log K(Na^+, MeOH, 25° C.) [1]: 7.9
- Log K(Rb^+, MeOH, 25° C.) [1]: 3.8
- Log K(Sr^++, MeOH, 25° C.) [1]: > 9.0
- Extraction rate at room temperature (RT), BaCl2 [2]: 46.1%
- Extraction rate at room temperature (RT), CaCl2 [2]: 59.4%
- Extraction rate at room temperature (RT), KCl [2]: 75.8%
- Extraction rate at room temperature (RT), LiCl [2]: 73.7%
- Extraction rate at room temperature (RT), MgCl2 [2]: 5.4%
- Extraction rate at room temperature (RT), NaCl [2]: 85.8%
- Extraction rate at room temperature (RT), SrCl2 [2]: 64.0%
- Salinity progression at RT, Ca ([3]; after Extract 1): 495 mmol/L
- Salinity progression at RT, Cl ([3]; after Extract 1): 2703 mmol/L
- Salinity progression at RT, K ([3]; after Extract 1): 22.5 mmol/L
- Salinity progression at RT, Mg ([3]; after Extract 1): 83.4 mmol/L
- Salinity progression at RT, Na ([3]; after Extract 1): 1162 mmol/L
- Salinity progression at RT, Ca ([3]; after Extract 2): 492 mmol/L
- Salinity progression at RT, Cl ([3]; after Extract 2): 2292 mmol/L
- Salinity progression at RT, K ([3]; after Extract 2): 23.4 mmol/L
- Salinity progression at RT, Mg ([3]; after Extract 2): 86.4 mmol/L
- Salinity progression at RT, Na ([3]; after Extract 2): 429 mmol/L
- Salinity progression at RT, Ca ([3]; after Extract 3): 360 mmol/L
- Salinity progression at RT, Cl ([3]; after Extract 3): 1083 mmol/L
- Salinity progression at RT, K ([3]; after Extract 3): 13.9 mmol/L
- Salinity progression at RT, Mg ([3]; after Extract 3): 87.6 mmol/L
- Salinity progression at RT, Na ([3]; after Extract 3): 8.54 mmol/L
- Salinity progression at RT, Ca ([3]; after Extract 4): 114 mmol/L
- Salinity progression at RT, Cl ([3]; after Extract 4): 469 mmol/L
- Salinity progression at RT, K ([3]; after Extract 4): 3.65 mmol/L
- Salinity progression at RT, Mg ([3]; after Extract 4): 94.2 mmol/L
- Salinity progression at RT, Na ([3]; after Extract 4): 3.70 mmol/L
- Equivalent4, Ca [3, 6]: 4.57 g/L
- Equivalent4, Cl [3, 6]: 16.62 g/L
- Equivalent4, K [3, 6]: 0.14 g/L
- Equivalent4, Mg [3, 6]: 2.29 g/L
- Equivalent4, Na [3, 6]: 0.09 g/L
- Salinity progression at RT, Total ([4]; after Extract 1): 4466 mmol/L
- Salinity progression at RT, Total ([4]; after Extract 2): 3322 mmol/L
- Salinity progression at RT, Total ([4]; after Extract 3): 1553 mmol/L
- Salinity progression at RT, Total ([4]; after Extract 4): 685 mmol/L
- Equivalent4, Total [4, 6]: 23.70 g/L
- % E Ca^++ [5]: 10.0%
- % E Na^+ [5]: 88.0%

From patent US12623942B2, “Method for extracting salts and temperature- regenerated extracting composition” (ADIONICS, priority 2016, dated 2026)
